Read-outs that look alike come from different tables or passages of the source.
How the values were obtained:
[1] = test system: A. baumannii HUMC1; assay: MIC by broth microdilution (CLSI), carbapenem-resistant clinical isolate HUMC1; assay type: cell-based, Acinetobacter baumannii; settings: Acinetobacter baumannii, read-out: MIC
Procedure: (§1) Two A. baumannii isolates were used in this example: HUMC1 (BV374) (Spellberg/Luna Laboratory, University of Southern California, Los Angeles, Calif.) and UNT091-1 (BV378) (UNT Health Science Center, Fort Worth, Tex.). The HUMC1 isolate is a hyper-virulent drug-resistant clinical strain isolated from a blood-stream infection. […] The isolates were stored at −80° C. as 20% (v/v) glycerol cultures.
(§2) MICs were determined by the broth microdilution method following the guidelines of the Clinical Laboratory Standards Institute (CLSI) using RPMI supplemented with […] cationic-adjusted Muller Hinton broth (CA-MHB) as assay medium. To prepare the bacterial inocula, 3-5 colonies of bacterial strains from over-night growth on ChromAgar orientation plates (CHROMagar Cat. No. RT412) were suspended in 5 mL saline. The turbidity of the bacterial suspension was adjusted to 0.5 McFarland units (equal to an optical density at 610 nm (OD610) to 0.08-0.1). This suspension was diluted 200-fold in RPMI supplemented with 10% (v/v) FCS to reach a final concentration of […] colony forming units (CFU)/mL and was used to inoculate the microtiter plates.
(§3) Serial 2-fold dilutions of the antibiotics were prepared in a separate 96-well plate polypropylene U-bottom plate (Ratiolab Cat. No. 6018111) in RPMI supplemented with 10% (v/v) FCS at 10-fold of the final test concentrations and 10 μl of the dilutions were transferred to new 96-well polystyrene U-bottom microtiter plates with a parafilm plate cover.
(§4) The plates were then inoculated with 90 μL per well of the prepared bacterial suspensions in using a multichannel pipette (Eppendorf), with the first column containing 4 wells each for growth control (no antibiotic). […] The MIC was recorded as the lowest concentration of the compound that inhibited bacterial growth by visual inspection. MICs were determined at least in duplicates and in the case of variations, the higher values are provided.

[2] = test system: A. baumannii UNT091; assay: MIC by broth microdilution (CLSI), carbapenem-resistant clinical isolate UNT091; assay type: cell-based, Acinetobacter baumannii; settings: Acinetobacter baumannii, read-out: MIC
Procedure: as §1, §2, §3, §4

[3] = HUMC1, HUMC1, RPMI plus 10% FCS (Table 1)
[4] = UNT091, UNT091, CA-MHB (Table 1)
[5] = UNT091, UNT091, RPMI plus 10% FCS (Table 1)

Structure (SMILES) | MIC ([1]; HUMC1, HUMC1, CA-MHB (Table 1)) | MIC [1, 3] | MIC [2, 4] | MIC [2, 5]
CO/N=C(\C(=O)N[C@@H]1C(=O)N2C(C(=O)O)=C(COC(C)=O)CS[C@H]12)c1csc(N)n1 [cefotaxime] | > 64 µg/mL | > 64 µg/mL | > 64 µg/mL | > 64 µg/mL
C[C@@H](O)[C@H]1C(=O)N2C(C(=O)O)=C(S[C@@H]3CN[C@H](C(=O)N(C)C)C3)[C@H](C)[C@H]12 [meropenem] | > 16 µg/mL | > 16 µg/mL | > 16 µg/mL | > 16 µg/mL

Reference: patent US11833139B2 (priority 2019, dated 2023)
